Key:
Cavα1 currents = assay: Whole-cell patch clamp Ca2+ current (ICa,L) in cotransfected tsA-201 cells with or without serum; assay type: cell-based; settings: cotransfection with Cavα1; 36 h
Experimental: FIG. 6. Akt phosphorylation of Cavβ2 preserves Cavα1 currents. Ca^2+ currents recorded in cotransfected tsA-201 cells with YFP-Cavα1 and either Cavβ2-WT, Cavβ2-SE, or Cavβ2-SA mutant, cultivated for 36 h in the presence or absence of fetal bovine serum (10%). Currents were recorded 1-2 minutes after the whole-cell configuration was achieved (i.e. after stabilization of the current) and were elicited by a 0 mV depolarization of 200 ms duration applied from a holding potential of −80 mV. Currents are normalized to cell capacitance (Current density, pA/pF). Representative current traces are shown. n>35 at each condition, (*P<0.05 compared to YFP-Cavα1, ANOVA).
FIG. 7. […] (C) Wild-type Cavα1 subunit (alone or cotransfected with Cavβ2SE) and its in-frame ΔPEST mutants (Cavα1-ΔP and Cavα1-ΔH) half-lives were determined in COST cells. After overnight starvation, transfected cells were pulse-chased and analyzed along a time course (*P<0.001 compared to Cavα1, ANOVA; n=3). […] (F) Ca^2+ currents recorded in tsA-201 cells cotransfected with Cavβ2-WT and either Cavα1-WT or Cavα1-ΔH and cultivated for 36 h in the presence or absence of fetal bovine serum (10%). […]
Macroscopic Ice, was recorded at room temperature (˜22° C.) using the whole-cell patch clamp technique in native cells as previously described (Aimond et al., 2005; Maier et al., 2003). […]

Cavα1 = assay: Western blot of Cavα1 protein level in 293T cells co-transfected with Cavα1 and Cavβ2 variants; assay type: cell-based
Experimental: FIG. 5. Akt phosphorylation of Cavβ2 protects Cavα1 from protein degradation. (A-C) YFP-Cavα1 co-transfected 293T cells with the indicated mutant variant of Cavβ2. Cells were serum-starved overnight and treated with (A) […] or (B-C) 5 μM Akt inhibitor as indicated. The expression of YFP-Cavα1 in lysates was monitored by Western blot analysis with anti-YFP antibody, and normalized based on transfection efficiency (Cav(32) and protein amount (Tubulin) (n=3). (D) Cavα1 and Cavβ2 co-transfected 293T cells were treated with siAkt expressing vector as indicated. 3 days post transfection, cell lysate was tested by Western blot analysis. Protein loading was normalized to GAPDH levels. Representative experiments are shown (n=3).
FIG. 12. Cavβ2 interacts with Akt isoforms and Akt affects Cavα1 protein stability. (A) Immunoprecipitated Akt isoforms from WT cardiac extracts from mice treated or not with insulin (1 mU/g) assayed for Cavβ2. Input protein in each co-immunoprecipitation is shown. (B) Cavα1, Cavα1-ΔP, or Cavα1-ΔH co-transfected 293T cells with either Cavβ2 or Cavβ2-SE were infected with indicated active (AdAkt) or dominant negative (AdAktDN) Akt expressing adenoviral vectors. Cells were serum-starved overnight as indicated. The expression of Cavα1 and phosphorylation of GSK in lysates was monitored by Western blot analysis. (C) Cavα1, Cavα1-ΔP, or Cavα1 co-transfected 293T cells with either Cavβ2 or Cavβ2-SE were treated with siAkt expressing vector as indicated. 3 days post transfection, cells were lysated for protein extraction. Protein loading was normalized to GAPDH levels. Representative experiments are shown (n=3).
To directly assess whether Akt phosphorylation of Cavβ2 protects Cavα1 from protein degradation, we constructed a mutant of Cavβ2 in which the Serine 625, contained in the putative Akt—consensus site (R—X—X—R—S/T), was replaced by Glutamate (Cavβ2-SE) to mimic phosphorylation. […]
Proteins expression was evaluated in total lysates or cell fractions by Western blot analysis according to standard procedures. […]

Cavβ2 = Cavβ2 phosphorylation in hearts of insulin-treated mice (PAS antibody); assay type: in vivo, mouse; settings: 1 mU/g insulin, 20 min post treatment
Experimental: FIG. 4. Akt interacts with and phosphorylates Cavβ2. (A) Coimmunoprecipitation assay of Akt and Cavβ2. Ventricular homogenates from WT and HA-E40K-Akt transgenic mice (Tg Akt) immunoprecipitated with antibodies against HA and immunoblotted for Cavβ2 as well as HA as a control. (B) Examination of Cavβ2 phosphorylation by Akt. In vitro kinase assays were performed with immunoprecipitated Cavβ2 incubated with recombinant active Akt and ^32P labeled ATP (left) or immunoprecipitated Cavβ2 from WT and KO cardiac extracts from mice treated or not with insulin (1 mU/g) using PAS (Phospho-Akt Substrate) antibody (right). (C) Back-phosphorylation assay of Cavβ2 from WT and KO hearts. Immunoprecipitated Cavβ2 from solubilized membranes was in vitro back-phosphorylated using recombinant active Akt and [γ^32]ATP. Precipitate amounts were assayed for ^32PCavβ2 and total Cavβ2. Representative experiments are shown (n=4).
To determine whether Cavβ2 can be phosphorylated by Akt, Cavβ2-immunoprecipitates from cardiac homogenates were incubated with recombinant active Akt and [γ-^32]ATP. A band corresponding to phosphorylated Cavβ2 was detected only in the presence of the kinase (FIG. 4B, left panel). To determine whether the Cavβ2 subunit was phosphorylated by Akt in vivo, we treated overnight-starved mice with 1 mU/g insulin to induce activation of Akt (Bayascas et al., 2008). […]

Substance	ICa,L in serum-free medium compared to serum-containing medium (Cavα1 currents)	Cavα1 protein level under Akt inhibitor (Cavα1; 5 μM Akt inhibitor)	Cavα1 protein levels compared to cotransfection with Cavβ2-WT (Cavα1; 293T cells cotransfected with Cavα1)	Phosphorylation of Cavβ2 in heart (Cavβ2)	Cavα1 expression on insulin treatment (Cavα1; Cavβ2-WT cotransfected cells)
Cavβ2-SE: mutant of Cavβ2 in which Serine 625 in the Akt consensus site was replaced by Glutamate to mimic phosphorylation	completely counteracted this reduction	counteracted the downregulation of Cavα1	increased	–	–
insulin [reference compound]	–	–	–	insulin-stimulated phosphorylation of Cavβ2 in WT but not in KO hearts	increased

Reference: US20120070451A1, “METHODS AND COMPOSITIONS FOR MODULATING CARDIAC CONTRACTILITY” (Consiglio Nazionale Delle Ricerche, priority 2009, published 2012)
